In patent US20170271704A1, “MITIGATION OF CROSSOVER WITHIN FLOW BATTERIES” (LOCKHEED MARTIN ADVANCED ENERGY STORAGE,LLC, priority 2016, published 2017):

Legend:
[1] = in water; active material for positive half-cell of a flow battery; cited from earlier work
[2] = Aqueous solubility (Table 1 comparison of positive half-cell active materials); settings: effective concentration of transferrable electrons (solubility x electrons transferred)

Fe(CN)6^3−^/4−
Aqueous Solubility [1]: 1300 to 1600 mM | Electron Aqueous Solubility [2]: 1300 to 1600 mM
